In paper PMC3243694, “Integrated Dataset of Screening Hits against Multiple Neglected Disease Pathogens” (PLoS Neglected Tropical Diseases, 2011):
Converted amounts (≈) assume the structure as drawn.

What was measured:
[1] = system: Trypanosoma cruzi, Tulahuen CL2 strain; experiment: Antitrypanosomal activity assay, T. cruzi in MRC-5 cells; type: cell-based; conditions: T. cruzi Tulahuen CL2 in MRC-5 cells, 7 days
Experimental: (§1) The compound set was tested against the following parasites: intra-erythrocytic forms in human red blood cells of P. falciparum K1 strain (malaria), [16], [32], [33], [35], bloodstream forms of T. brucei Squib 427 strain (human African trypanosomiasis, HAT), [31], [32], [34], intracellular amastigotes of T. cruzi Tulahuen CL2, beta- galactosidase strain (Chagas' Disease), [32]–[35], intracellular amastigotes of L. infantum MHOM/MA(BE)/67 (leishmaniasis), [32]–[36], larval and/or adult worms of S. mansoni Puerto Rican strain (schistosomiasis), [31], [37], microfilariae of B. malayi (lymphatic filariasis), [30] and microfilariae of O. ochengi or O. lienalis (onchocerciasis), [30]. It should be noted that the human pathogen for onchocerciasis is Onchocerca volvulus, but due to lack of a suitable in vitro assay or animal models for this pathogen, O. ochengi and lienalis, which are both animal pathogens, are used in the primary and secondary assays, [30].
171 of the 744 actives passed the initial criterion of IC50<1 µg/ml for T. cruzi Tulahuen CL2, beta galactosidase strain maintained on MRC-5SV2 cells in MEM medium (MRC-5 cell/parasite inoculum: 4.10^3 cells/well+4.10^4 parasites/well), supplemented with […] L-glutamine, 16.5 mM NaHCO3 and 5% heat inactivated fetal calf serum. […] Of these, 109 were eliminated [structures #1–6] for poor selectivity versus mammalian cells (SI<50) and an additional 11 due to undesirable chemical attributes. The remaining 51 compounds were sorted into 10 series (45 compounds) and 6 singletons [structures # 21, 22]. Two of these series with excellent potency against T. cruzi, limited activity against other protozoa and SI values >50 (not shown), have been transferred to DNDi for further evaluation.

[2] = system: Brugia malayi adult worms; experiment: Anti-Brugia malayi adult worm motility assay; type: cell-based; conditions: B. malayi adult worms
Source text: In some cases, particularly for the antifilarial screens, a second whole organism test with adult stage parasites is included prior to animal evaluation. The decision to utilize microfilariae for primary screening was based on throughput and biological considerations. It is difficult to acquire enough adult filariae to enable screening more than 1000 compounds per year, a rate far lower than needed for timely evaluation of the available compounds. In light of this situation, and considering that we are targeting molecules that are active on both stages, microfilariae screening was adopted as a suitable filter to identify compounds with potential macrofilaricidal activity. As result of logistics issues attributed to lost shipments of some compounds, only 6160 molecules of the 10,000 compound set were tested, at a uniform molarity, against B. malayi, including 6063 against microfilariae and 756 against adult worms (these sets overlap). […] Greatest priority was given to compounds with activity against adult worms, as no macrofilaricide is available for use in control campaigns and the activity of ivermectin as a microfilaricidal agent is unlikely to be bettered in a new series. […] These were titrated to determine an IC50 value to support prioritization. Following cytotoxicity triage [structures # 1, 4, 6], eight compounds met the activity criterion for adult worms (i.e., 100% inhibition of adult worm motility), four of which were also active against microfilariae [structures # 14, 29, 30, 32]. […] Of these, the most interesting was TDR76699 [structure # 29]; this compound has very good activity against adult worms (IC50 = 0.1 µg/ml) and is also active against microfilariae (IC50 = 0.7 µg/ml). None of the other compounds tested against adult parasites had IC50 values ≤0.5 µg/ml, a threshold which would reduce concerns about specificity. However, a few series [structures # 31, 33, 34], appear interesting for future medicinal chemistry projects.

[3] = system: MRC-5 cell line (diploid human embryonic lung fibroblast); experiment: Cytotoxicity on MRC-5 cells; type: cell-based
Source text: [table] An important part of the screen is the evaluation of all compounds for cytotoxicity using the diploid human embryonic lung fibroblast MRC-5 cell line (Figure 2). Further evaluation of cytotoxicity also takes advantage of the assays for intracellular protozoan parasites, as in the case of L. infantum and T. cruzi, which include murine peritoneal macrophage host cells and MRC-5SV2 human lung fibroblast cells, respectively, in the culture system.

[4] = system: Plasmodium falciparum K1 strain; experiment: Anti-Plasmodium activity assay (Malstat); type: cell-based; conditions: P. falciparum K1, 72 h
Experimental: as §1

[5] = system: Brugia malayi microfilariae; experiment: Anti-Brugia malayi microfilariae motility assay; type: cell-based; conditions: B. malayi microfilariae
Experimental: as §1
As result of logistics issues attributed to lost shipments of some compounds, only 6160 molecules of the 10,000 compound set were tested, at a uniform molarity, against B. malayi, including 6063 against microfilariae and 756 against adult worms (these sets overlap). […] Greatest priority was given to compounds with activity against adult worms, as no macrofilaricide is available for use in control campaigns and the activity of ivermectin as a microfilaricidal agent is unlikely to be bettered in a new series. Of the test set, 53 compounds met the activity criterion for microfilariae (100% motility reduction) and an additional 58 inhibited adult worm motility ≥75% at 10 µM. These were titrated to determine an IC50 value to support prioritization. Following cytotoxicity triage [structures # 1, 4, 6], eight compounds met the activity criterion for adult worms (i.e., 100% inhibition of adult worm motility), four of which were also active against microfilariae [structures # 14, 29, 30, 32]. […] Of these, the most interesting was TDR76699 [structure # 29]; this compound has very good activity against adult worms (IC50 = 0.1 µg/ml) and is also active against microfilariae (IC50 = 0.7 µg/ml). None of the other compounds tested against adult parasites had IC50 values ≤0.5 µg/ml, a threshold which would reduce concerns about specificity. However, a few series [structures # 31, 33, 34], appear interesting for future medicinal chemistry projects.

[6] = system: Schistosoma mansoni adult worms; experiment: Anti-Schistosoma activity assay (adult worm motility); type: cell-based; conditions: S. mansoni adult worms; 12.5 µM (method: 10 µg/ml or 12.5 µM)
Experimental: as §1
A subset of 9478 of the 10,000 compound collection was tested against the Puerto Rican strain of S. mansoni. 6144 of these were tested in a primary larval assay followed by the ex-vivo adult secondary screen. The remainder was screened only in the adult assay. […] The 65 compounds were sorted by chemical attractiveness, potency against adult schistosomes in culture, selectivity against other parasites, and toxicity to mammalian cells in culture. Based on this analysis, 5 series encompassing 13 compounds were chosen for advancement through the African Network for Drug and Diagnostic Innovation (ANDI) and other PDPs. Representative structures [structures # 13, 27, 28] are shown (Table S1). These compounds are unburdened by obvious toxic moieties, have acceptable compliance with the Lipinski rules, are selectively active against schistosomes and are not overtly toxic to mammalian cells. It has unfortunately not been possible to titrate all of these hits in culture; of about 50% for which such data are available, none has an IC50<2 µg/ml (which is the initial potency criteria).

[7] = system: Trypanosoma brucei brucei Squib-427 strain; experiment: Antitrypanosomal activity assay, T. brucei (resazurin); type: cell-based; conditions: T. brucei Squib 427 bloodstream forms, 72 h
Experimental: as §1

[8] = system: Onchocerca (lienalis or ochengi) microfilariae; experiment: Anti-Onchocerca microfilariae motility assay; type: cell-based, Onchocerca lienalis or O. ochengi
Experimental: as §1
4240 compound s were screened against O. ochengi at the University of Buea in Cameroon, while a subset of […] compounds was successfully screened in UK by the Northwick Park Institute for Medical Research against O. lienalis, at a uniform molarity. […] After removing molecules that were toxic to mammalian cells (IC50<5 µg/ml), 292 molecules remained for further evaluation. […] From the latter sub-set, […] distinct chemical series and one singleton [structure # 35] were active against both microfilaria and adults. One series [structures # 2, 3] was deemed not interesting due to lack of selectivity against mammalian cells. The remaining series is being transferred to ANDI for further progression as part of a new collaboration.

| SMILES | CHA IC50 [1] | LF/AW % Motility Reduction at 12.5µM [2] | CYT IC50 [3] | MAL IC50 [4] | LF/MF % Motility Reduction at 12.5µM [5] | SCH % Motility Reduction at 12.5µM [6] | HAT IC50 [7] | ONC/MF % Motility Reduction at 12.5µM [8] | IC50 adult worms ([2]; titration) | IC50 microfilariae ([5]; titration) |
| --- | --- | --- | --- | --- | --- | --- | --- | --- | --- | --- |
| COc1cccc2sc(Nc3nnc(-c4cccs4)o3)nc12 [TDR77585] | 0.31 µg/mL | 50% | 1.83 µg/mL | 1.25 µg/mL | 100% | 0% | 0.35 µg/mL | – | – | – |
| O=C(Nc1nc2c(F)cc(F)cc2s1)c1nc2ccccc2s1 [TDR77323] | >10.42 µg/mL | 50% | >10.42 µg/mL | >10.42 µg/mL | 100% | 0% | – | – | – | – |
| O=C(Nc1nc2c(s1)CSc1ccccc1-2)C1COc2ccccc2O1 (stereo not shown) [TDR77035] | 0.5 µg/mL | 0% | 2.62 µg/mL | 4.75 µg/mL | 33% | 100% | 0.37 µg/mL | 100% | – | – |
| Cc1cccc(-n2nc3c(c2NC(=O)Nc2cccc(Cl)c2)CSC3)c1 [TDR76699] | 9.48 µg/mL | 100% | >11.55 µg/mL | >11.55 µg/mL | 100% | 25% | >11.55 µg/mL | 33% | 0.1 µg/mL (≈ 0.26 µM) | 0.7 µg/mL (≈ 1.82 µM) |
| CN(C)CCN(C(=O)c1cccc(N2C(=O)CCC2=O)c1)c1nc2ccc(Br)cc2s1 [TDR79337] | 4.94 µg/mL | 0% | >16.14 µg/mL | 1.45 µg/mL | – | 33% | 0.36 µg/mL | 0% | – | – |
| CCC(=O)c1c(NC(=O)c2ccc(C)cc2)sc2c1CCN(CC)C2 [TDR76871] | 0.48 µg/mL | 22.3% | >11.79 µg/mL | 1.87 µg/mL | 33.3% | 0% | 0.32 µg/mL | 0% | – | – |
| O=C(COc1ccc(Cl)cc1Cl)Nc1nnc(C23CC4CC(CC(C4)C2)C3)s1 [TDR76660] | >13.15 µg/mL | 0% | >13.15 µg/mL | >13.15 µg/mL | 100% | 0% | >13.15 µg/mL | 0% | – | – |
| O=C(Nc1nc2c(s1)CSc1ccccc1-2)C1CCCN1S(=O)(=O)c1cccs1 (stereo not shown) [TDR83016] | 0.5 µg/mL | 0% | 1.88 µg/mL | 3.71 µg/mL | 100% | 100% | 0.45 µg/mL | 100% | – | – |
| COC(=O)c1c(NC(=O)c2cc3ccccc3oc2=O)sc2c1CCN(Cc1ccccc1)C2 [TDR76873] | 0.64 µg/mL | 100% | 8.92 µg/mL | >15.33 µg/mL | 100% | 0% | >15.33 µg/mL | 40% | – | – |
| O=C(COc1cccc2c1CCN(Cc1ccccc1F)C2=O)N1CCC(Cc2ccccc2)CC1 [TDR77144] | 0.56 µg/mL | 100% | 4.56 µg/mL | 4.54 µg/mL | 100% | 0% | 0.47 µg/mL | 0% | – | – |
| O=C(Cc1ccc(F)cc1)Nc1nc(-c2ccccn2)cs1 [TDR82963] | 0.33 µg/mL | – | >9.4 µg/mL | 2.97 µg/mL | 0% | 0% | 0.31 µg/mL | 23% | – | – |
| O=S(=O)(c1cccnc1)N1CCN(c2ccc(-c3cccs3)nn2)CC1 [TDR85115] | >11.6 µg/mL | – | >11.6 µg/mL | >11.6 µg/mL | 50% | 0% | >11.6 µg/mL | 0% | – | – |
| CCOC(=O)c1ccc(NC(=O)CSc2nnc(NC(=O)C34CC5CC(CC(C5)C3)C4)s2)cc1 [TDR76705] | >15.02 µg/mL | 100% | >15.02 µg/mL | >15.02 µg/mL | 100% | 0% | >15.02 µg/mL | 33.3% | – | – |
